Earlier results, collected in US20060093676A1, “Ascorbic acid stability” (priority 2002, published 2006).

Conditions: in water

pK of acid-ionizable hydrogen: 4.2
Compound: O=C1O[C@H]([C@@H](O)CO)C(O)=C1O [L-Ascorbic acid]
